Some test systems named below: Escherichia coli ML-35p; Bacillus subtilis; Staphylococcus aureus; Streptococcus uberis; Micrococcus luteus; Pasteurella multocida; Listeria innocua; Leuconostoc lactis; Escherichia coli; Bacillus cereus.
Holding throughout (assay): ≥ marks a high value that may be exact or a test limit, other limits are often not marked, values filed in µg/mL are converted to µM
Assay [1] deals with Micrococcus luteus ATCC 10240.
Assay [2] has as its system Klebsiella pneumoniae ATCC 10031.
Assay [3] concerns Pseudomonas aeruginosa ATCC 27853.
The test system of assay [4] is Salmonella enterica subsp. enterica serovar Typhimurium ATCC 14028.
In assay [5] the test system is Bacillus subtilis ATCC 6633.
For assay [6], the system named is Staphylococcus epidermidis ATCC 12228.
Assay [7] has as its system Staphylococcus aureus ATCC 6538P.
For assay [8], the system named is Escherichia coli ATCC 25922.
For assay [9], the system named is Shigella dysenteriae ATCC 9752.
Assay [10] deals with Pseudomonas aeruginosa PAO1.
Assay [11] concerns Candida albicans ATCC 2002.
Assay [12] deals with Staphylococcus aureus ATCC 25923.
The test system of assay [13] is Staphylococcus aureus ATCC 43300.
For assay [14], the system named is Staphylococcus epidermidis.
Assay [15] concerns Candida albicans ATCC 90028.
The test system of assay [16] is Klebsiella pneumoniae ATCC 700603.
In assay [17] the test system is Acinetobacter baumannii ATCC 19606.
Assay [18] concerns Cryptococcus neoformans ATCC 208821.

The values that follow come from DBAASP.

Values after ≈ are worked out from the molar mass of the structure shown.

With `CC(C)C[C@H](NC(=O)[C@H](Cc1c[nH]c2ccccc12)NC(=O)[C@H](CCCCN)NC(=O)[C@H](Cc1ccccc1)NC(=O)[C@H](C)NC(=O)[C@H](Cc1c[nH]c2ccccc12)NC(=O)[C@H](CCCCN)NC(=O)[C@H](C)NC(=O)[C@@H](N)Cc1ccccc1)C(=O)N[C@@H](CCCCN)C(=O)N[C@@H](CCCCN)C(N)=O` [FAKWAFKWLKK], the minimum inhibitory concentration (MIC) (in general, the lowest concentration found to suppress growth) in [1] was determined as 4.34 µM (≈ 6.3 µg/mL); in assay [2] it was 4.34 µM (≈ 6.3 µg/mL); in assay [3], 8.6 µM (≈ 12.5 µg/mL); in [4] it was 17.2 µM (≈ 25 µg/mL); in [5], 4.34 µM (≈ 6.3 µg/mL); in [6] it was 4.34 µM (≈ 6.3 µg/mL). The MIC is 4.34 µM (≈ 6.3 µg/mL) in assay [7], 8.6 µM (≈ 12.5 µg/mL) in [8] and 8.6 µM (≈ 12.5 µg/mL) in [9].

Regarding `CC(C)C[C@H](NC(=O)[C@H](C)NC(=O)CNC(=O)[C@H](Cc1ccccc1)NC(=O)[C@H](CC(C)C)NC(=O)[C@H](CC(C)C)NC(=O)[C@@H]1CCCN1C(=O)[C@H](Cc1ccccc1)NC(=O)[C@@H](N)Cc1ccccc1)C(=O)N[C@@H](CO)C(=O)N[C@@H](CO)C(=O)N[C@@H](Cc1cnc[nH]1)C(=O)N[C@@H](CC(C)C)C(=O)N1CCC[C@H]1C(=O)N[C@@H](CCCCN)C(=O)N[C@@H](CC(C)C)C(=O)N[C@@H](Cc1ccccc1)C(N)=O` [FFPLLFGALSSHLPKLF], the MIC worked out at 1.94 µM (≈ 3.75 µg/mL) in assay [10]; 1.94 µM (≈ 3.75 µg/mL) in [11]; 1.94 µM (≈ 3.75 µg/mL) in assay [12]; 1.94 µM (≈ 3.75 µg/mL) in assay [3]; 7.75 µM (≈ 15 µg/mL) with Escherichia coli ML-35p; 3.88 µM (≈ 7.5 µg/mL) with Bacillus subtilis. This compound also registered an MIC in assay [13] of 3.88 µM (≈ 7.5 µg/mL).

As to `CC[C@H](C)[C@H](NC(=O)CNC(=O)[C@H](Cc1c[nH]c2ccccc12)NC(=O)[C@H](CS)NC(=O)[C@H](CO)NC(=O)[C@@H](NC(=O)[C@H](CCC(N)=O)NC(=O)[C@H](Cc1ccccc1)NC(=O)[C@@H]1CCCN1C(=O)[C@@H]1CCCN1C(=O)[C@H](CCCN=C(N)N)NC(=O)[C@H](CCCCN)NC(=O)[C@H](Cc1c[nH]c2ccccc12)NC(=O)[C@@H](NC(=O)[C@H](CCCCN)NC(=O)[C@@H](N)Cc1ccccc1)[C@@H](C)O)[C@@H](C)O)C(=O)N[C@H](C(=O)N[C@@H](CCCCN)C(=O)N[C@@H](CCC(=O)O)C(=O)O)[C@@H](C)CC` [FKTWKRPPFQTSCWGIIKE], the MIC in assay [10] is 23.4 µM (≈ 55 µg/mL); in [11], 5.84 µM (≈ 13.8 µg/mL); in assay [12] it was 11.7 µM (≈ 27.5 µg/mL); in [3], 23.4 µM (≈ 55 µg/mL); in the assay on Escherichia coli ML-35p it was at least 46.8 µM; against Bacillus subtilis it was at least 46.8 µM. The minimal inhibitory concentration (MIC) in assay [13] was determined as 23.4 µM (≈ 55 µg/mL).

As for `CC[C@H](C)[C@H](NC(=O)[C@@H](NC(=O)[C@H](C)NC(=O)[C@H](Cc1ccccc1)NC(=O)[C@H](CC(C)C)NC(=O)CN)C(C)C)C(=O)N[C@@H](CCCCN)C(=O)N[C@@H](CCCCN)C(=O)N[C@H](C(=O)N[C@@H](C)C(=O)N[C@@H](CO)C(=O)N[C@H](C(=O)N[C@H](C(=O)N[C@@H](CCCCN)C(=O)N[C@@H](CCCCN)C(=O)N[C@@H](CC(C)C)C(N)=O)[C@@H](C)CC)C(C)C)C(C)C` [GLFAVIKKVASVIKKL], the MIC against Staphylococcus aureus was 14.6 µM (≈ 25 µg/mL); against Streptococcus uberis, 14.6 µM (≈ 25 µg/mL); with Micrococcus luteus, 14.6 µM (≈ 25 µg/mL); in the assay on Pasteurella multocida it was at least 58.3 µM; against Listeria innocua it was 3.5 µM (≈ 6 µg/mL); in assay [14] it was 7 µM (≈ 12 µg/mL). The MIC in the assay with Leuconostoc lactis stood at 1.75 µM (≈ 3 µg/mL); with Escherichia coli, 58.3 µM (≈ 99.9 µg/mL); against Bacillus cereus it was 14.6 µM (≈ 25 µg/mL).

For `NC(N)=NCCC[C@H](NC(=O)[C@H](CCCN=C(N)N)NC(=O)[C@H](CS)NC(=O)[C@H](CCCN=C(N)N)NC(=O)[C@H](Cc1cnc[nH]1)NC(=O)[C@H](CO)NC(=O)[C@H](CCCN=C(N)N)NC(=O)[C@H](CS)NC(=O)[C@H](CS)NC(=O)[C@H](CCCN=C(N)N)NC(=O)[C@H](Cc1cnc[nH]1)NC(=O)[C@H](Cc1cnc[nH]1)NC(=O)[C@@H](N)CO)C(=O)O` [SHHRCCRSHRCRR], the MIC in assay [15] is 18.9 µM (≈ 32 µg/mL); in assay [16] it was over 18.9 µM; in assay [3], over 18.9 µM; in assay [17], over 18.9 µM; in [18], 4.72 µM (≈ 8 µg/mL); in assay [13], 18.9 µM (≈ 32 µg/mL). In addition, the MIC in assay [8] was over 18.9 µM.

On to `CC(C)C[C@H](NC(=O)[C@H](CCCN=C(N)N)NC(=O)[C@@H]1CCCN1C(=O)[C@H](CCCN=C(N)N)NC(=O)[C@H](Cc1cnc[nH]1)NC(=O)[C@H](Cc1cnc[nH]1)NC(=O)[C@@H](N)CO)C(=O)N[C@@H](Cc1ccccc1)C(=O)N[C@@H](Cc1cnc[nH]1)C(=O)N[C@@H](CCCN=C(N)N)C(=O)N[C@@H](Cc1cnc[nH]1)C(=O)N[C@@H](CCCN=C(N)N)C(=O)N[C@@H](Cc1cnc[nH]1)C(=O)O` [SHHRPRLFHRHRH], for which the MIC was 18 µM (≈ 32 µg/mL) in [15]; over 18 µM in assay [16]; over 18 µM in assay [3]; over 18 µM in assay [17]; 18 µM (≈ 32 µg/mL) in assay [18]; over 18 µM in assay [13]. The same compound returned an MIC in assay [8] of over 18 µM.

As to `CC(C)C[C@H](NC(=O)[C@H](CCCN=C(N)N)NC(=O)[C@@H]1CCCN1C(=O)[C@H](CCCN=C(N)N)NC(=O)[C@H](Cc1cnc[nH]1)NC(=O)[C@H](Cc1cnc[nH]1)NC(=O)[C@@H](N)CO)C(=O)N[C@@H](Cc1ccccc1)C(=O)N[C@@H](Cc1cnc[nH]1)C(=O)N[C@@H](CCCN=C(N)N)C(=O)N[C@@H](CCCN=C(N)N)C(=O)N[C@@H](CCCN=C(N)N)C(=O)N[C@@H](Cc1cnc[nH]1)C(=O)O` [SHHRPRLFHRRRH], the MIC in assay [15] is 17.9 µM (≈ 32 µg/mL); in [16], over 17.9 µM; in assay [3], over 17.9 µM; in assay [17], over 17.9 µM; in assay [18], 17.9 µM (≈ 32 µg/mL); in [13], over 17.9 µM. The compound also yielded an MIC in [8] of over 17.9 µM.

For `CC[C@H](C)[C@H](NC(=O)[C@H](C)NC(=O)[C@@H](NC(=O)[C@@H](NC(=O)[C@H](CCCCN)NC(=O)[C@@H](NC(=O)[C@H](CCCCN)NC(=O)[C@H](CC(=O)O)NC(=O)[C@H](CCCN=C(N)N)NC(=O)[C@@H](NC(=O)[C@@H](N)CO)[C@@H](C)CC)[C@@H](C)CC)[C@@H](C)O)[C@@H](C)CC)C(=O)N[C@@H](CC(=O)O)C(=O)N[C@@H](CC(C)C)C(=O)N[C@@H](C)C(=O)N[C@@H](CCCCN)C(=O)N[C@@H](CO)C(=O)N[C@@H](C)C(=O)NCC(=O)N[C@H](C(=O)NCC(=O)N[C@H](C(=O)N[C@@H](CC(C)C)C(=O)N[C@@H](CCCCN)C(=O)N[C@H](C(=O)N[C@@H](CC(C)C)C(=O)N[C@H](C(=O)N[C@H]1CSSC[C@@H](C(=O)O)NC(=O)[C@H](CO)NC(=O)[C@H](CCCCN)NC(=O)[C@H](CC(N)=O)NC(=O)[C@H](CC(C)C)NC(=O)[C@H](CCCCN)NC1=O)[C@@H](C)CC)[C@@H](C)O)C(C)C)[C@@H](C)O` [SIRDKIKTIAIDLAKSAGTGVLKTLICKLNKSC], the MIC in [11] was 5.35 µM (≈ 18.7 µg/mL); in assay [12] it was 4.28 µM (≈ 15 µg/mL); against Escherichia coli ML-35p, 7.14 µM (≈ 25 µg/mL); against Bacillus subtilis, 5.35 µM (≈ 18.7 µg/mL); in assay [13] it was 3.57 µM (≈ 12.5 µg/mL).
